Values after ≈ are worked out from the molar mass of the structure shown. Values joined by “and” are separate entries in the source; they are usually repeats but may differ in a detail not shown here. Equal entries are not always repeated.

Broadly, the MIC is the lowest concentration that inhibits growth of the organism. Low values mean inhibition by little substance, high ones a need for much substance.

Test systems include Candida albicans; Saccharomyces cerevisiae; Proteus vulgaris; Bacillus megaterium IBMC; Escherichia coli SBS 363; Micrococcus luteus A270; Fusarium oxysporum.
Assay in all cases: ≥ marks a high value that may be exact or a test limit, other limits are often not marked, values filed in µg/mL are converted to µM
Test [1] deals with Salmonella typhimurium KCTC 1926.
For test [2], the system named is Saccharomyces cerevisiae KCTC 7296.
Test [3] concerns Proteus vulgaris KCTC 2433.
The subject of test [4] is Trichosporon beigelii KCTC 7707.
Test [5] relates to Candida albicans TIMM 1768.
The test system of test [6] is Staphylococcus aureus KCTC 1621.
For test [7], the system named is Bacillus subtilis KCTC 1918.
In test [8] the test system is Pseudomonas aeruginosa IFO 12582.
Test [9] concerns Escherichia coli IFO 12734.
Test [10] relates to Staphylococcus aureus IFO 12732.
In test [11] the test system is Bacillus subtilis IFO 3143.
For test [12], the system named is Pseudomonas aeruginosa ATCC 27853.
The subject of test [13] is Salmonella enterica subsp. enterica serovar Typhimurium ATCC 14028.
Test [14] has as its system Campylobacter jejuni ATCC 33291.
In test [15] the test system is Bacillus cereus ATCC 9193.
For test [16], the system named is Streptococcus pyogenes ATCC 19615.
Test [17] has as its system Staphylococcus aureus ATCC 29213.
In test [18] the test system is Clostridium perfringens ATCC 12915.
Test [19] concerns Bacillus megaterium KCTC 1096.
For test [20], the system named is Aspergillus flavus KCTC 7375.
The test system of test [21] is Trichosporon beigelii KCTC 7251.
Test [22] deals with Fusarium oxysporum KCTC 6084.
In test [23] the test system is Escherichia coli KCTC 1682.
For test [24], the system named is Pseudomonas aeruginosa KCTC 1637.
For test [25], the system named is Candida albicans KCTC 7121.
The test system of test [26] is Corynebacterium stationis CIP 101282.
The subject of test [27] is Vibrio splendidus CIP 107715.
The test system of test [28] is Staphylococcus aureus SG511.
In test [29] the test system is Vibrio coralliilyticus YB1 CIP 107925.
In test [30] the test system is Vibrio aestuarianus CIP 109791.
Test [31] deals with Microbacterium maritypicum CIP 105733T.

Turning to `CC[C@H](C)[C@H](NC(=O)CNC(=O)[C@H](CC(C)C)NC(=O)[C@H](CCCN=C(N)N)NC(=O)[C@H](CCCCN)NC(=O)[C@H](Cc1ccccc1)NC(=O)[C@@H](NC(=O)[C@H](CCCCN)NC(=O)[C@H](CCCCN)NC(=O)[C@H](C)N)C(C)C)C(=O)NCC(=O)N[C@@H](C)C(=O)N[C@H](C(=O)N[C@@H](CC(C)C)C(=O)N[C@@H](Cc1c[nH]c2ccccc12)C(=O)N[C@H](C(=O)N[C@@H](CC(C)C)C(=O)N[C@H](C(=O)N[C@H](C(=O)NCC(=O)O)[C@@H](C)O)[C@@H](C)O)C(C)C)C(C)C` [AKKVFKRLGIGAVLWVLTTG], the MIC in [1] was 0.78 µM (≈ 1.68 µg/mL); in [2], at least 50 µM; in [3], 12.5 µM (≈ 27 µg/mL); in test [4], at least 50 µM; in test [5], at least 50 µM; in test [6], 3.12 µM (≈ 6.73 µg/mL). In [7], this molecule gave an MIC of 3.12 µM (≈ 6.73 µg/mL).

As for `CC(C)C[C@H](NC(=O)[C@H](Cc1ccc(O)cc1)NC(=O)[C@H](Cc1cnc[nH]1)NC(=O)[C@@H](NC(=O)[C@H](CC(C)C)NC(=O)[C@H](C)NC(=O)[C@H](C)NC(=O)[C@H](CCCCN)NC(=O)[C@H](C)NC(=O)[C@@H](NC(=O)[C@H](Cc1cnc[nH]1)NC(=O)[C@H](CCCCN)NC(=O)[C@H](C)NC(=O)[C@@H](NC(=O)[C@H](Cc1cnc[nH]1)NC(=O)[C@H](C)NC(=O)[C@H](C)NC(=O)[C@H](CCCCN)NC(=O)[C@H](CCCCN)NC(=O)[C@H](Cc1ccccc1)NC(=O)[C@H](Cc1ccccc1)NC(=O)[C@H](CO)NC(=O)[C@H](C)NC(=O)[C@H](Cc1c[nH]c2ccccc12)NC(=O)[C@H](C)N)C(C)C)C(C)C)[C@@H](C)O)C(=O)O` [AWASFFKKAAHVAKHVAKAALTHYL], the MIC in test [8] amounted to 1.45 µM (≈ 4 µg/mL); in test [9] it was 0.723 µM (≈ 2 µg/mL); in [10], 0.723 µM (≈ 2 µg/mL); in test [11], 0.723 µM (≈ 2 µg/mL).

Turning to `CC[C@H](C)[C@@H]1NC(=O)[C@H](CC(=O)O)NC(=O)[C@H](C(C)C)NC(=O)[C@H](CO)NC(=O)[C@@H]2CCCN2C(=O)[C@H](C)NC(=O)[C@H](CCCN=C(N)N)NC(=O)[C@@H]2CSSC[C@@H](C(=O)N[C@@H](CCCCN)C(=O)N[C@@H](Cc3c[nH]c4ccccc34)C(=O)N[C@@H](C)C(=O)N3CCC[C@H]3C(=O)N[C@@H](CO)C(=O)N[C@@H](CO)C(=O)O)NC(=O)[C@@H]3CSSC[C@H](NC(=O)[C@H](C)NC(=O)[C@H](CC(C)C)NC(=O)[C@@H](NC(=O)[C@@H](N)CC(=O)O)[C@@H](C)O)C(=O)N[C@@H](CCCN=C(N)N)C(=O)N[C@@H](CCC(N)=O)C(=O)N[C@@H](CO)C(=O)N[C@@H](Cc4cnc[nH]4)C(=O)NCC(=O)N[C@@H](CO)C(=O)N[C@@H](CSSC[C@H](NC(=O)[C@H]([C@@H](C)O)NC(=O)CNC1=O)C(=O)N[C@@H](CCCN=C(N)N)C(=O)NCC(=O)NCC(=O)N[C@@H](CCCCN)C(=O)N[C@@H](CC(C)C)C(=O)N[C@@H](CCCCN)C(=O)N3)C(=O)N[C@@H](CO)C(=O)N[C@@H](Cc1ccccc1)C(=O)N[C@@H](C(C)C)C(=O)N[C@@H](C)C(=O)N2` [DTLACRQSHGSCSFVACRAPSVDIGTCRGGKLKCCKWAPSS], the MIC in [12] is over 29.9 µM; in test [13] it was > 29.9 µM and 59.7 µM; against Candida albicans it was 1.87 µM (≈ 7.99 µg/mL); in test [14] it was 14.9 µM (≈ 63.9 µg/mL); in test [15] it was 29.9 µM (≈ 128 µg/mL); in test [16], 14.9 µM (≈ 63.9 µg/mL). For the same molecule, the MIC was > 29.9 µM and 59.7 µM in test [17]; 1.87 µM (≈ 7.99 µg/mL) in test [18]; 1.87 µM (≈ 7.99 µg/mL) with Saccharomyces cerevisiae.

As for `CC[C@H](C)[C@H](NC(=O)[C@H](CCCCN)NC(=O)[C@H](CCCCN)NC(=O)[C@H](Cc1ccccc1)NC(=O)[C@H](CC(C)C)NC(=O)[C@H](CCCCN)NC(=O)[C@H](Cc1c[nH]c2ccccc12)NC(=O)[C@@H](N)CCCCN)C(=O)N1CCC[C@H]1C(=O)N[C@@H](CCCCN)C(=O)N[C@@H](Cc1ccccc1)C(=O)N[C@@H](CC(C)C)C(=O)N[C@@H](Cc1cnc[nH]1)C(=O)N[C@@H](CC(C)C)C(N)=O` [KWKLFKKIPKFLHL], the MIC in [19] is 3.12 µM (≈ 5.7 µg/mL); in test [20] it was at least 100 µM; in test [21], at least 100 µM; in test [22], at least 100 µM; in test [6] it was 6.25 µM (≈ 11.4 µg/mL); in test [23] it was 6.25 µM (≈ 11.4 µg/mL). In addition, the MIC in test [24] is 6.25 µM (≈ 11.4 µg/mL); in the test with Proteus vulgaris, 3.12 µM (≈ 5.7 µg/mL); in test [25] it was at least 100 µM; in test [7], 1.56 µM (≈ 2.85 µg/mL).

Turning to `CC[C@H](C)[C@@H]1NC(=O)CNC(=O)[C@H](CCCCN)NC(=O)[C@H](CCCCN)NC(=O)[C@H](CC(=O)O)NC(=O)[C@@H]2CSSC[C@@H]3NC(=O)[C@H](CO)NC(=O)[C@H](Cc4ccc(O)cc4)NC(=O)[C@H](CO)NC(=O)[C@H](CSSC[C@H](NC(=O)[C@H](Cc4ccccc4)NC(=O)[C@H]([C@@H](C)O)NC(=O)[C@H](CCCCN)NC(=O)CNC(=O)[C@H](CCCN=C(N)N)NC(=O)[C@H](CC(C)C)NC(=O)[C@H](CC(=O)O)NC(=O)[C@H](C)NC(=O)[C@@H](NC(=O)[C@H](C)N)CSSC[C@@H](C(=O)N[C@@H](CCCN=C(N)N)C(N)=O)NC(=O)CNC3=O)C(=O)N[C@@H](CCCN=C(N)N)C(=O)N[C@@H](CC(C)C)C(=O)N[C@@H](Cc3ccccc3)C(=O)N[C@@H](CCCCN)C(=O)N[C@@H](CO)C(=O)N[C@@H](Cc3ccc(O)cc3)C(=O)N2)NC(=O)[C@H](CCCCN)NC(=O)[C@H](CC(=O)O)NC(=O)[C@H](CCCN=C(N)N)NC(=O)[C@H](CCSC)NC(=O)[C@H](CC(C)C)NC(=O)[C@H](CCCN=C(N)N)NC(=O)CNC(=O)[C@H](CCCN=C(N)N)NC1=O` [ACADLRGKTFCRLFKSYCDKKGIRGRLMRDKCSYSCGCR], the MIC in test [26] came to 10 µM (≈ 44.9 µg/mL); against Bacillus megaterium IBMC, 20 µM (≈ 89.8 µg/mL); in test [27], 20 µM (≈ 89.8 µg/mL); in test [28], 5 µM (≈ 22.5 µg/mL); in test [29], 20 µM (≈ 89.8 µg/mL); against Escherichia coli SBS 363, 10 µM (≈ 44.9 µg/mL). In addition, the MIC in the test with Micrococcus luteus A270 turned out to be 1.25 µM (≈ 5.61 µg/mL); in [30] it was 20 µM (≈ 89.8 µg/mL); in the test with Fusarium oxysporum, 1.25 µM (≈ 5.61 µg/mL); in test [31] it was 20 µM (≈ 89.8 µg/mL).
